Measurements as given in ChEMBL document CHEMBL5532742, “Design and Synthesis of the Linezolid Bioisosteres to Resolve the Serotonergic Toxicity Associated with Linezolid” (ACS Med Chem Lett, 2024).
Values after ≈ are worked out from the molar mass of the structure shown.

Tests used:
Type in all cases: functional
Conditions in all cases: time 1 weeks
[1] = system: Mycobacterium tuberculosis; experiment: Antimycobacterial activity against low-grade isoniazid resistant Mycobacterium tuberculosis clinical isolate harboring mutation in inhA promoter region incubated for 1 week by resazurin dye based fluorescence analysis
[2] = system: Mycobacterium tuberculosis; experiment: Antimycobacterial activity against high-grade isoniazid resistant Mycobacterium tuberculosis clinical isolate harboring katG S315T mutant incubated for 1 week by resazurin dye based fluorescence analysis
[3] = system: Mycobacterium tuberculosis; experiment: Antimycobacterial activity against high-grade rifampicin resistant Mycobacterium tuberculosis clinical isolate harboring rpoB S531L mutant incubated for 1 week by resazurin dye based fluorescence analysis
[4] = system: Mycobacterium tuberculosis; experiment: Antimycobacterial activity against high-grade isoniazid, rifampicin, ethambutol and pyrazinamide resistant Mycobacterium tuberculosis clinical isolate harboring mutations in inhA, katG, rpoB H526D, eis genes incubated for 1 week by resazurin dye based fluorescence analysis

Structure (SMILES) | MIC50 [1] [µM] | MIC50 [2] [µM] | MIC50 [3] [µM] | MIC50 [4] [µM]
O=C1O[C@@H](CNS(=O)(=O)c2cccs2)CN1c1ccc(N2CCOCC2)c(F)c1 | 1.98 (≈ 0.874 µg/mL) | 4.52 (≈ 2 µg/mL) | 3.32 (≈ 1.47 µg/mL) | 7.01 (≈ 3.09 µg/mL)
O=C(NC[C@H]1CN(c2ccc(N3CCOCC3)c(F)c2)C(=O)O1)C1CC1 | 0.33 (≈ 0.12 µg/mL) | 1.53 (≈ 0.556 µg/mL) | 0.82 (≈ 0.298 µg/mL) | 1.99 (≈ 0.723 µg/mL)
O=C(NC[C@H]1CN(c2ccc(N3CCOCC3)c(F)c2)C(=O)O1)c1cccs1 | 1.78 (≈ 0.722 µg/mL) | 4.01 (≈ 1.63 µg/mL) | 2.78 (≈ 1.13 µg/mL) | 5.01 (≈ 2.03 µg/mL)
CCS(=O)(=O)NC[C@H]1CN(c2ccc(N3CCOCC3)c(F)c2)C(=O)O1 | 0.14 (≈ 0.0542 µg/mL) | 0.53 (≈ 0.205 µg/mL) | 0.24 (≈ 0.093 µg/mL) | 0.92 (≈ 0.356 µg/mL)
CS(=O)(=O)NC[C@H]1CN(c2ccc(N3CCOCC3)c(F)c2)C(=O)O1 | 0.85 (≈ 0.317 µg/mL) | 10.35 (≈ 3.86 µg/mL) | 1.82 (≈ 0.68 µg/mL) | 8.83 (≈ 3.3 µg/mL)
NNC(=O)c1ccncc1 [ISONIAZID] | 0.98 (≈ 0.134 µg/mL) | 11.06 (≈ 1.52 µg/mL) | 23.03 (≈ 3.16 µg/mL) | >100
CC(=O)NC[C@H]1CN(c2ccc(N3CCOCC3)c(F)c2)C(=O)O1 [LINEZOLID] | 0.12 (≈ 0.0405 µg/mL) | 0.42 (≈ 0.142 µg/mL) | 0.24 (≈ 0.081 µg/mL) | 0.81 (≈ 0.273 µg/mL)
CO[C@H]1/C=C/O[C@@]2(C)Oc3c(C)c(O)c4c(O)c(c(/C=N/N5CCN(C)CC5)c(O)c4c3C2=O)NC(=O)/C(C)=C\C=C\[C@H](C)[C@H](O)[C@@H](C)[C@@H](O)[C@@H](C)[C@H](OC(C)=O)[C@@H]1C [RIFAMPIN] | <0.04 | <0.04 | 28.15 (≈ 23.2 µg/mL) | >100
